Data as given in DBAASP.
Converted amounts (≈) assume the structure as drawn. Each block holds one molecule with its values, some of them ahead of it.

How the values were obtained:
Test in all cases: ≥ marks a high value that may be exact or a test limit, other limits are often not marked, values filed in µg/mL are converted to µM
[1] = system: Staphylococcus aureus
[2] = system: Staphylococcus aureus ATCC 6538P
[3] = system: Escherichia coli JM109
[4] = system: Salmonella enterica subsp. enterica serovar Typhimurium ATCC 14028
[5] = system: Pseudomonas aeruginosa ATCC 27853
[6] = system: Staphylococcus epidermidis ATCC 12228
[7] = system: Bacillus subtilis ATCC 6633
[8] = system: Klebsiella pneumoniae ATCC 10031
[9] = system: Escherichia coli ATCC 25922
[10] = system: Micrococcus luteus ATCC 10240
[11] = system: Shigella dysenteriae ATCC 9752
[12] = system: Klebsiella aerogenes CGMCC 1.876
[13] = system: Enterobacter cloacae CGMCC 1.58
[14] = system: Staphylococcus aureus AS1.72
[15] = system: Enterococcus faecalis CGMCC 1.595
[16] = system: Enterococcus faecium CGMCC 1.2334
[17] = system: Pseudomonas aeruginosa CGMCC 1.860
[18] = system: Bacillus cereus AS1.126
[19] = system: Lactococcus lactis AS1.1690
[20] = system: Acinetobacter baumannii CICC 22934
[21] = system: Klebsiella pneumoniae subsp. pneumoniae CGMCC 1.176
[22] = system: Proteus mirabilis CICC 22931
[23] = system: Escherichia coli AS1.349
[24] = system: Micrococcus luteus ATCC 4698
[25] = system: Escherichia coli W160-37
[26] = system: Staphylococcus aureus ATCC 6538
[27] = system: Escherichia coli DH5alpha

- MIC [1]: 47.8 µM
- MIC [2]: 7.46 µM
- MIC [3]: 17.9 µM
SMILES: CC[C@H](C)[C@H](NC(=O)[C@H](C)NC(=O)[C@H](CC(C)C)NC(=O)[C@H](CS)NC(=O)[C@H](Cc1cnc[nH]1)NC(=O)[C@H](C)NC(=O)[C@H](C)NC(=O)[C@H](CS)NC(=O)[C@@H](N)CC(C)C)C(=O)N[C@@H](CC(C)C)C(=O)N[C@@H](CCCN=C(N)N)C(=O)N[C@@H](CCCN=C(N)N)C(N)=O [LCAAHCLAILRR]

- MIC [12]: ≥ 100 µM
- MIC [13]: ≥ 100 µM
- MIC [14]: ≥ 100 µM
- MIC [15]: ≥ 100 µM
- MIC [16]: ≥ 100 µM
- MIC [17]: ≥ 100 µM
- MIC [18]: ≥ 100 µM
- MIC [19]: ≥ 100 µM
- MIC [20]: ≥ 100 µM
- MIC [21]: ≥ 100 µM
- MIC [22]: ≥ 100 µM
- MIC [23]: ≥ 100 µM
SMILES: CC(C)C[C@H](NC(=O)[C@H](CCCCN)NC(=O)[C@H](CCCN=C(N)N)NC(=O)[C@H](Cc1cnc[nH]1)NC(=O)[C@H](C)NC(=O)[C@H](CCCN=C(N)N)NC(=O)[C@H](Cc1cnc[nH]1)NC(=O)CNC(=O)[C@H](Cc1ccccc1)NC(=O)[C@H](CCCN=C(N)N)NC(=O)[C@H](CCCN=C(N)N)NC(=O)CNC(=O)[C@H](Cc1cnc[nH]1)NC(=O)[C@H](CCCN=C(N)N)NC(=O)CNC(=O)[C@@H](NC(=O)[C@H](CCCCN)NC(=O)[C@@H](N)CO)C(C)C)C(=O)O [SKVGRHGRRFGHRAHRKL]

- MIC [24]: 17 µM (≈ 24.6 µg/mL)
SMILES: CC(C)C[C@@H]1NC(=O)[C@H](CCCN=C(N)N)NC(=O)[C@H](Cc2cnc[nH]2)NC(=O)[C@H](Cc2c[nH]c3ccccc23)NC(=O)CNC(=O)CNC(=O)[C@@H](NC(=O)[C@H](Cc2ccc(O)cc2)NC(=O)CNC(=O)CNC(=O)[C@@H](N)CO)CSSC[C@@H](C(=O)O)NC(=O)[C@H](CCCN=C(N)N)NC1=O [SGGYCGGWHRLRC]

- MIC [12]: ≥ 100 µM
- MIC [13]: ≥ 100 µM
- MIC [14]: 12.5 µM (≈ 27.6 µg/mL)
- MIC [15]: 18.8 µM (≈ 41.5 µg/mL)
- MIC [16]: 18.8 µM (≈ 41.5 µg/mL)
- MIC [17]: ≥ 100 µM
- MIC [18]: 9.38 µM (≈ 20.7 µg/mL)
- MIC [19]: 18.8 µM (≈ 41.5 µg/mL)
- MIC [20]: ≥ 100 µM
- MIC [21]: ≥ 100 µM
- MIC [22]: ≥ 100 µM
- MIC [23]: ≥ 100 µM
SMILES: CC(C)C[C@H](NC(=O)[C@H](CCCCN)NC(=O)[C@H](CCCN=C(N)N)NC(=O)[C@H](Cc1cnc[nH]1)NC(=O)[C@H](C)NC(=O)[C@H](CCCN=C(N)N)NC(=O)[C@H](Cc1cnc[nH]1)NC(=O)CNC(=O)[C@H](Cc1ccccc1)NC(=O)[C@H](CCCN=C(N)N)NC(=O)[C@H](CCCN=C(N)N)NC(=O)[C@H](CC(C)C)NC(=O)[C@H](Cc1cnc[nH]1)NC(=O)[C@H](CCCN=C(N)N)NC(=O)CNC(=O)[C@@H](NC(=O)[C@H](CCCCN)NC(=O)[C@@H](N)CO)C(C)C)C(=O)O [SKVGRHLRRFGHRAHRKL]

- MIC [1]: 46.1 µM (≈ 64 µg/mL)
- MIC [2]: 4.32 µM (≈ 6 µg/mL)
- MIC [3]: 11.5 µM (≈ 16 µg/mL)
SMILES: CC[C@H](C)[C@H](NC(=O)[C@H](C)NC(=O)[C@H](CC(C)C)NC(=O)[C@H](CCCN=C(N)N)NC(=O)[C@H](Cc1cnc[nH]1)NC(=O)[C@H](C)NC(=O)[C@H](C)NC(=O)[C@H](CCCN=C(N)N)NC(=O)[C@@H](N)CC(C)C)C(=O)NCC(=O)N[C@@H](CCCN=C(N)N)C(=O)N[C@@H](CCCN=C(N)N)C(N)=O [LRAAHRLAIGRR]

- MIC [12]: ≥ 100 µM
- MIC [13]: ≥ 100 µM
- MIC [14]: 2.34 µM (≈ 5.31 µg/mL)
- MIC [15]: 4.69 µM (≈ 10.6 µg/mL)
- MIC [16]: 3.13 µM (≈ 7.1 µg/mL)
- MIC [17]: ≥ 100 µM
- MIC [18]: 2.34 µM (≈ 5.31 µg/mL)
- MIC [19]: 4.69 µM (≈ 10.6 µg/mL)
- MIC [20]: ≥ 100 µM
- MIC [21]: ≥ 100 µM
- MIC [22]: ≥ 100 µM
- MIC [23]: ≥ 100 µM
SMILES: CC(C)C[C@H](NC(=O)[C@H](CCCCN)NC(=O)[C@H](CCCN=C(N)N)NC(=O)[C@H](Cc1cnc[nH]1)NC(=O)[C@H](C)NC(=O)[C@H](CCCN=C(N)N)NC(=O)[C@H](Cc1cnc[nH]1)NC(=O)[C@H](CC(C)C)NC(=O)[C@H](Cc1ccccc1)NC(=O)[C@H](CCCN=C(N)N)NC(=O)[C@H](CCCN=C(N)N)NC(=O)[C@H](CC(C)C)NC(=O)[C@H](Cc1cnc[nH]1)NC(=O)[C@H](CCCN=C(N)N)NC(=O)CNC(=O)[C@@H](NC(=O)[C@H](CCCCN)NC(=O)[C@@H](N)CO)C(C)C)C(=O)O [SKVGRHLRRFLHRAHRKL]

Continued, molecule first:

SMILES: CC(C)C[C@H](NC(=O)[C@H](Cc1c[nH]c2ccccc12)NC(=O)CNC(=O)[C@H](CC(C)C)NC(=O)[C@@H](N)Cc1ccccc1)C(=O)N[C@@H](Cc1ccccc1)C(=O)N[C@@H](CCCCN)C(=O)N[C@@H](Cc1c[nH]c2ccccc12)C(=O)N[C@@H](C)C(=O)N[C@@H](CCCCN)C(=O)N[C@@H](CCCCN)C(N)=O [FLGWLFKWAKK]
- MIC [4]: 35.1 µM (≈ 50 µg/mL)
- MIC [5]: 17.6 µM (≈ 25 µg/mL)
- MIC [2]: 8.78 µM (≈ 12.5 µg/mL)
- MIC [6]: 4.42 µM (≈ 6.3 µg/mL)
- MIC [7]: 4.42 µM (≈ 6.3 µg/mL)
- MIC [8]: 8.78 µM (≈ 12.5 µg/mL)
- MIC [9]: 8.78 µM (≈ 12.5 µg/mL)
- MIC [10]: 2.18 µM (≈ 3.1 µg/mL)
- MIC [11]: 17.6 µM (≈ 25 µg/mL)

SMILES: CC[C@H](C)[C@H](N)C(=O)N[C@H](C(=O)N[C@@H](CO)C(=O)N[C@H](C(=O)N[C@H](C(=O)NCC(=O)N[C@@H](CCCCN)C(=O)N[C@@H](CC(C)C)C(=O)N[C@H](C(=O)N[C@@H](CCCCN)C(=O)N[C@@H](Cc1c[nH]c2ccccc12)C(=O)N[C@H](C(=O)N[C@H](C(=O)N[C@@H](CCCCN)C(=O)N[C@H](C(=O)N[C@H](C(=O)O)C(C)C)[C@@H](C)O)[C@@H](C)CC)[C@@H](C)CC)C(C)C)[C@@H](C)CC)[C@@H](C)O)[C@@H](C)CC [IISTIGKLVKWIIKTV]
- MIC [1]: 3.46 µM (≈ 6.28 µg/mL)
- MIC [25]: 3 µM (≈ 5.44 µg/mL)

SMILES: CC(C)C[C@H](NC(=O)[C@@H](NC(=O)[C@H](CCCCN)NC(=O)[C@H](CO)NC(=O)[C@H](CC(C)C)NC(=O)[C@H](C)NC(=O)[C@H](CCCCN)NC(=O)[C@H](Cc1ccccc1)NC(=O)[C@H](CC(C)C)NC(=O)[C@H](C)NC(=O)CNC(=O)[C@H](CC(C)C)NC(=O)[C@@H](N)Cc1ccccc1)C(C)C)C(=O)O [FLGALFKALSKVL]
- MIC [6]: 11.4 µM (≈ 16 µg/mL)
- MIC [26]: 9.24 µM (≈ 13 µg/mL)
- MIC [24]: 5.69 µM (≈ 8 µg/mL)
- MIC [27]: 28.4 µM (≈ 40 µg/mL)

SMILES: CC(C)C[C@H](NC(=O)[C@H](CC(C)C)NC(=O)[C@H](CCCCN)NC(=O)[C@H](CO)NC(=O)[C@H](CC(C)C)NC(=O)[C@H](C)NC(=O)[C@H](CCCCN)NC(=O)[C@H](C)NC(=O)[C@H](CC(C)C)NC(=O)[C@H](C)NC(=O)CNC(=O)[C@H](CC(C)C)NC(=O)[C@@H](N)Cc1ccccc1)C(=O)O [FLGALAKALSKLL]
- MIC [6]: 35.7 µM (≈ 48 µg/mL)
- MIC [26]: 20.8 µM (≈ 28 µg/mL)
- MIC [24]: 11.9 µM (≈ 16 µg/mL)
- MIC [27]: ≥ 74.4 µM

SMILES: CC[C@H](C)[C@H](NC(=O)[C@H](CCCCN)NC(=O)[C@H](CCCN=C(N)N)NC(=O)[C@@H]1CCCN1C(=O)[C@@H](NC(=O)[C@H](CC(C)C)NC(=O)[C@H](CC(C)C)NC(=O)[C@H](CC(C)C)NC(=O)[C@@H](N)Cc1ccccc1)[C@@H](C)CC)C(=O)N[C@H](C(=O)N[C@H](C(=O)N[C@@H](C)C(=O)N[C@@H](CC(C)C)C(N)=O)[C@@H](C)O)C(C)C [FLLLIPRKIVTAL]
- MIC [25]: ≥ 93.5 µM

SMILES: CC[C@H](C)[C@H](N)C(=O)N[C@H](C(=O)N[C@@H](CO)C(=O)N[C@H](C(=O)N[C@H](C(=O)NCC(=O)N[C@@H](CC(=O)O)C(=O)N[C@@H](CC(C)C)C(=O)N[C@H](C(=O)N[C@@H](CCCCN)C(=O)N[C@@H](Cc1c[nH]c2ccccc12)C(=O)N[C@H](C(=O)N[C@H](C(=O)N[C@@H](CCCCN)C(=O)N[C@H](C(=O)N[C@H](C(=O)O)C(C)C)[C@@H](C)O)[C@@H](C)CC)[C@@H](C)CC)C(C)C)[C@@H](C)CC)[C@@H](C)O)[C@@H](C)CC [IISTIGDLVKWIIKTV]
- MIC [25]: ≥ 35 µM
